{
  "source": "patent US20260256792A1",
  "about": "“TREATMENT OF CHRONIC SPONTANEOUS URTICARIA BY ADMINISTERING (R)-2-[3-[4-AMINO-3-(2-FLUORO-4-PHENOXY-PHENYL)PYRAZOLO[3,4-D]PYRIMIDIN-1-YL]PIPERIDINE-1-CARBONYL]-4-METHYL-4-[4-(OXETAN-3-YL)PIPERAZIN-1-YL]PENT-2-ENENITRILE” (priority 2023, published 2026)",
  "test_system": "angioedema in CSU patients",
  "assay": "Phase 2 CSU study: angioedema activity score over 7 days (AAS7)",
  "type": "in vivo, human",
  "conditions": "400 mg BID; for AAS7 = 0, OR (95% CI) for rilzabrutinib vs. placebo / AAS7 = 0, RRD (%) for rilzabrutinib vs. placebo (95% CI) / AAS7 Post-baseline Mean (SD) / Participants with AAS7 = 0, Responder n (%) / AAS7 % Change difference for rilzabrutinib vs. placebo LS Mean (95% CI) / AAS7 % Change from baseline LS Mean (SE) / AAS7 Change difference for rilzabrutinib vs. placebo LS Mean (95% CI) / AAS7 Change from baseline LS Mean (SE) / AAS7 = 0, Non-responder n (%): angioedema at baseline; for Non-responder n (%), AAS7 = 0 / OR (95% CI) for rilzabrutinib vs. placebo, AAS7 = 0 / Responder n (%), AAS7 = 0 / RRD (%) for rilzabrutinib vs. placebo (95% CI), AAS7 = 0: outlier removed",
  "description": "The study comprises a 12 week, randomized, double-blind, placebo-controlled, multi-center, dose-ranging efficacy and safety phase, followed by a 40 week open label extension (OLE) phase (see FIG. 1). The study consists of three phases and an optional OLE phase. […] The weekly angioedema activity score (AAS7) was proposed as a tertiary endpoint. […] Patients were to complete the AAS using the e-diary. The e-diary was to be used once daily on the same time of each day recording of participant's answers to the angioedema activity score over 7 days (AAS7) questionnaire.",
  "data": [
    {"smiles": "CC(C)(C=C(C#N)C(=O)N1CCC[C@@H](n2nc(-c3ccc(Oc4ccccc4)cc3F)c3c(N)ncnc32)C1)N1CCN(C2COC2)CC1", "note": "[rilzabrutinib, (R)-2-[3-[4-amino-3-(2-fluoro-4-phenoxy-phenyl)pyrazolo[3,4-d]pyrimidin-1-yl]piperidine-1-carbonyl]-4-methyl-4-[4-(oxetan-3-yl)piperazin-1-yl]pent-2-enenitrile]", "values": [
      {"measurement": "AAS7 = 0, OR (95% CI) for rilzabrutinib vs. placebo", "setting": "Week 4, omalizumab-naïve", "result": 2.118},
      {"measurement": "AAS7 = 0, RRD (%) for rilzabrutinib vs. placebo (95% CI)", "setting": "Week 4, omalizumab-naïve", "result": 16.8, "unit": "%"},
      {"measurement": "AAS7 Post-baseline Mean (SD)", "setting": "Week 4, omalizumab-naïve", "result": "14.79 (17.89)"},
      {"measurement": "Participants with AAS7 = 0, Responder n (%)", "setting": "Week 4, omalizumab-naïve", "result": "11 (42.3) n (%)"},
      {"measurement": "AAS7 % Change difference for rilzabrutinib vs. placebo LS Mean (95% CI)", "setting": "Week 5, ITT", "result": "−14.36 (−40.13, 11.41) %"},
      {"measurement": "AAS7 % Change from baseline LS Mean (SE)", "setting": "Week 5, ITT", "result": "−68.19 (10.08) %"},
      {"measurement": "AAS7 Change difference for rilzabrutinib vs. placebo LS Mean (95% CI)", "setting": "Week 5, ITT", "result": "−6.53 (−17.51, 4.44)"},
      {"measurement": "AAS7 Change from baseline LS Mean (SE)", "setting": "Week 5, ITT", "result": "−36.13 (4.29)"},
      {"measurement": "AAS7 Post-baseline Mean (SD)", "setting": "Week 5, ITT", "result": "12.95 (20.09)"},
      {"measurement": "Non-responder n (%), AAS7 = 0", "setting": "Week 5, omalizumab-naïve", "result": "14 (40.0) n (%)"},
      {"measurement": "OR (95% CI) for rilzabrutinib vs. placebo, AAS7 = 0", "setting": "Week 5, omalizumab-naïve", "result": 1.574},
      {"measurement": "Responder n (%), AAS7 = 0", "setting": "Week 5, omalizumab-naïve", "result": "21 (60.0) n (%)"},
      {"measurement": "AAS7 % Change difference for rilzabrutinib vs. placebo LS Mean (95% CI)", "setting": "Week 5, omalizumab-naïve", "result": "−10.97 (−38.45, 16.50) %"},
      {"measurement": "AAS7 = 0, Non-responder n (%)", "setting": "Week 5, omalizumab-naïve", "result": "13 (50.0) n (%)"},
      {"measurement": "AAS7 = 0, OR (95% CI) for rilzabrutinib vs. placebo", "setting": "Week 5, omalizumab-naïve", "result": 2.390},
      {"measurement": "AAS7 = 0, RRD (%) for rilzabrutinib vs. placebo (95% CI)", "setting": "Week 5, omalizumab-naïve", "result": 22.3, "unit": "%"},
      {"measurement": "AAS7 Post-baseline Mean (SD)", "setting": "Week 5, omalizumab-naïve", "result": "13.98 (20.55)"},
      {"measurement": "Participants with AAS7 = 0, Responder n (%)", "setting": "Week 5, omalizumab-naïve", "result": "13 (50.0) n (%)"},
      {"measurement": "AAS7 % Change difference for rilzabrutinib vs. placebo LS Mean (95% CI)", "setting": "Week 6, ITT", "result": "−23.55 (−50.40, 3.31) %"},
      {"measurement": "AAS7 Change difference for rilzabrutinib vs. placebo LS Mean (95% CI)", "setting": "Week 6, ITT", "result": "−10.15 (−21.84, 1.54)"},
      {"measurement": "AAS7 Change from baseline LS Mean (SE)", "setting": "Week 6, ITT", "result": "−36.76 (4.50)"},
      {"measurement": "AAS7 Post-baseline Mean (SD)", "setting": "Week 6, ITT", "result": "12.28 (18.70)"},
      {"measurement": "Non-responder n (%), AAS7 = 0", "setting": "Week 6, omalizumab-naïve", "result": "17 (48.6) n (%)"},
      {"measurement": "OR (95% CI) for rilzabrutinib vs. placebo, AAS7 = 0", "setting": "Week 6, omalizumab-naïve", "result": 1.118},
      {"measurement": "RRD (%) for rilzabrutinib vs. placebo (95% CI), AAS7 = 0", "setting": "Week 6, omalizumab-naïve", "result": 2.9, "unit": "%"},
      {"measurement": "Responder n (%), AAS7 = 0", "setting": "Week 6, omalizumab-naïve", "result": "18 (51.4) n (%)"},
      {"measurement": "AAS7 % Change difference for rilzabrutinib vs. placebo LS Mean (95% CI)", "setting": "Week 6, omalizumab-naïve", "result": "−20.62 (−49.95, 8.72) %"},
      {"measurement": "AAS7 = 0, Non-responder n (%)", "setting": "Week 6, omalizumab-naïve", "result": "15 (57.7) n (%)"},
      {"measurement": "AAS7 = 0, OR (95% CI) for rilzabrutinib vs. placebo", "setting": "Week 6, omalizumab-naïve", "result": 1.828},
      {"measurement": "AAS7 = 0, RRD (%) for rilzabrutinib vs. placebo (95% CI)", "setting": "Week 6, omalizumab-naïve", "result": 13.6, "unit": "%"},
      {"measurement": "AAS7 Post-baseline Mean (SD)", "setting": "Week 6, omalizumab-naïve", "result": "13.26 (19.12)"},
      {"measurement": "Participants with AAS7 = 0, Responder n (%)", "setting": "Week 6, omalizumab-naïve", "result": "11 (42.3) n (%)"},
      {"measurement": "AAS7 % Change difference for rilzabrutinib vs. placebo LS Mean (95% CI)", "setting": "Week 7, ITT", "result": "−25.42 (−54.97, 4.13) %"},
      {"measurement": "AAS7 % Change from baseline LS Mean (SE)", "setting": "Week 7, ITT", "result": "−71.37 (11.45) %"},
      {"measurement": "AAS7 Change from baseline LS Mean (SE)", "setting": "Week 7, ITT", "result": "−37.72 (4.37)"},
      {"measurement": "AAS7 Post-baseline Mean (SD)", "setting": "Week 7, ITT", "result": "13.39 (19.19)"},
      {"measurement": "Non-responder n (%), AAS7 = 0", "setting": "Week 7, omalizumab-naïve", "result": "18 (51.4) n (%)"},
      {"measurement": "OR (95% CI) for rilzabrutinib vs. placebo, AAS7 = 0", "setting": "Week 7, omalizumab-naïve", "result": 1.022},
      {"measurement": "RRD (%) for rilzabrutinib vs. placebo (95% CI), AAS7 = 0", "setting": "Week 7, omalizumab-naïve", "result": 0.6, "unit": "%"},
      {"measurement": "Responder n (%), AAS7 = 0", "setting": "Week 7, omalizumab-naïve", "result": "17 (48.6) n (%)"},
      {"measurement": "AAS7 % Change difference for rilzabrutinib vs. placebo LS Mean (95% CI)", "setting": "Week 7, omalizumab-naïve", "result": "−23.13 (−55.14, 8.88) %"},
      {"measurement": "AAS7 % Change from baseline LS Mean (SE)", "setting": "Week 7, omalizumab-naïve", "result": "−70.13 (12.07) %"},
      {"measurement": "AAS7 = 0, Non-responder n (%)", "setting": "Week 7, omalizumab-naïve", "result": "15 (57.7) n (%)"},
      {"measurement": "AAS7 = 0, OR (95% CI) for rilzabrutinib vs. placebo", "setting": "Week 7, omalizumab-naïve", "result": 1.515},
      {"measurement": "AAS7 Post-baseline Mean (SD)", "setting": "Week 7, omalizumab-naïve", "result": "14.38 (19.63)"},
      {"measurement": "Participants with AAS7 = 0, Responder n (%)", "setting": "Week 7, omalizumab-naïve", "result": "11 (42.3) n (%)"},
      {"measurement": "AAS7 % Change difference for rilzabrutinib vs. placebo LS Mean (95% CI)", "setting": "Week 8, ITT", "result": "−29.34 (−59.45, 0.76) %"},
      {"measurement": "AAS7 % Change from baseline LS Mean (SE)", "setting": "Week 8, ITT", "result": "−81.40 (11.62) %"},
      {"measurement": "AAS7 Change difference for rilzabrutinib vs. placebo LS Mean (95% CI)", "setting": "Week 8, ITT", "result": "−13.31 (−24.25, −2.37)"},
      {"measurement": "AAS7 Change from baseline LS Mean (SE)", "setting": "Week 8, ITT", "result": "−41.63 (4.21)"},
      {"measurement": "AAS7 Post-baseline Mean (SD)", "setting": "Week 8, ITT", "result": "9.20 (16.24)"},
      {"measurement": "Non-responder n (%), AAS7 = 0", "setting": "Week 8, omalizumab-naïve", "result": "14 (40.0) n (%)"},
      {"measurement": "OR (95% CI) for rilzabrutinib vs. placebo, AAS7 = 0", "setting": "Week 8, omalizumab-naïve", "result": 1.991},
      {"measurement": "RRD (%) for rilzabrutinib vs. placebo (95% CI), AAS7 = 0", "setting": "Week 8, omalizumab-naïve", "result": 17.0, "unit": "%"},
      {"measurement": "Responder n (%), AAS7 = 0", "setting": "Week 8, omalizumab-naïve", "result": "21 (60.0) n (%)"},
      {"measurement": "AAS7 % Change difference for rilzabrutinib vs. placebo LS Mean (95% CI)", "setting": "Week 8, omalizumab-naïve", "result": "−30.39 (−63.25, 2.47) %"},
      {"measurement": "AAS7 % Change from baseline LS Mean (SE)", "setting": "Week 8, omalizumab-naïve", "result": "−80.38 (12.36) %"},
      {"measurement": "AAS7 = 0, Non-responder n (%)", "setting": "Week 8, omalizumab-naïve", "result": "13 (50.0) n (%)"},
      {"measurement": "AAS7 = 0, OR (95% CI) for rilzabrutinib vs. placebo", "setting": "Week 8, omalizumab-naïve", "result": 2.829}
    ]}
  ]
}
